Assay results published in ChEMBL document CHEMBL1201862, “PubChem BioAssay data set” (2004).
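Tested at 5 concentrations; 48 h exposure; 96-well plates; endpoints linearly interpolated, else capped at highest concentration. Here, GI50 denotes the concentration required for 50% inhibition of growth.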 Activity calls are given as the source filed them. Rule as the data show it: active = GI50 up to about 1.1 µM and inactive = higher.

How the values were obtained:
Assay in all cases: inhibition of tumour cell growth, NCI panel, 48 h
SW-620 = test system: SW-620
DU-145 = test system: DU-145
HCT-116 = test system: HCT-116
K562 = test system: K562
HT-29 = test system: HT-29
COLO 205 = test system: COLO 205
LOX IMVI = test system: LOX IMVI
MOLT-4 = test system: MOLT-4
CAKI-1 = test system: CAKI-1
A549 = test system: A549
MDA-MB-435 = test system: MDA-MB-435
SF-295 = test system: SF-295
SF-539 = test system: SF-539
SNB-75 = test system: SNB-75
NCI-H460 = test system: NCI-H460
MDA-N = test system: MDA-N
OVCAR-8 = test system: OVCAR-8
SF-268 = test system: SF-268
ACHN = test system: ACHN
NCI-H23 = test system: NCI-H23
MDA-MB-231 = test system: MDA-MB-231
NCI/ADR-RES = test system: NCI/ADR-RES
OVCAR-3 = test system: OVCAR-3
T47D = test system: T47D
HOP-92 = test system: HOP-92
BT-549 = test system: BT-549
A498 = test system: A498
MCF7 = test system: MCF7
HL-60 = test system: HL-60
OVCAR-4 = test system: OVCAR-4
HCT-15 = test system: HCT-15
SK-MEL-2 = test system: SK-MEL-2
UACC-62 = test system: UACC-62
M14 = test system: M14
CCRF-CEM = test system: CCRF-CEM
UACC-257 = test system: UACC-257
U-251 = test system: U-251
RPMI-8226 = test system: RPMI-8226
HCC 2998 = test system: HCC 2998
EKVX = test system: EKVX
OVCAR-5 = test system: OVCAR-5
SN12C = test system: SN12C
IGROV-1 = test system: IGROV-1
SR = test system: SR
UO-31 = test system: UO-31
RXF 393 = test system: RXF 393
NCI-H522 = test system: NCI-H522
Hs-578T = test system: Hs-578T
KM12 = test system: KM12
PC-3 = test system: PC-3
HOP-62 = test system: HOP-62
SNB-19 = test system: SNB-19
TK-10 = test system: TK-10
SK-MEL-5 = test system: SK-MEL-5
786-0 = test system: 786-0
SK-OV-3 = test system: SK-OV-3
SK-MEL-28 = test system: SK-MEL-28
Malme-3M = test system: Malme-3M

## CC(=O)Nc1nnc(S(=O)(=O)NC(=S)Nc2ccc(Cl)cc2)s1
SW-620
  GI50: > 100 µM (inactive)
DU-145
  GI50: > 100 µM (inactive)
HCT-116
  GI50: > 100 µM (inactive)
K562
  GI50: > 100 µM (inactive)
HT-29
  GI50: > 100 µM (inactive)
COLO 205
  GI50: > 100 µM (inactive)
LOX IMVI
  GI50: > 100 µM (inactive)
MOLT-4
  GI50: > 100 µM (inactive)
CAKI-1
  GI50: > 100 µM (inactive)
A549
  GI50: > 100 µM (inactive)
MDA-MB-435
  GI50: > 100 µM (inactive)
SF-295
  GI50: > 100 µM (inactive)
SF-539
  GI50: > 100 µM (inactive)
SNB-75
  GI50: > 100 µM (inactive)
NCI-H460
  GI50: > 100 µM (inactive)
MDA-N
  GI50: > 100 µM (inactive)
OVCAR-8
  GI50: > 100 µM (inactive)
SF-268
  GI50: > 100 µM (inactive)
ACHN
  GI50: > 100 µM (inactive)
NCI-H23
  GI50: > 100 µM (inactive)
MDA-MB-231
  GI50: > 100 µM (inactive)
NCI/ADR-RES
  GI50: > 100 µM (inactive)
OVCAR-3
  GI50: > 100 µM (inactive)
T47D
  GI50: > 100 µM (inactive)
HOP-92
  GI50: > 100 µM (inactive)
BT-549
  GI50: > 100 µM (inactive)
A498
  GI50: > 100 µM (inactive)
MCF7
  GI50: > 100 µM (inactive)
HL-60
  GI50: > 100 µM (inactive)
OVCAR-4
  GI50: > 100 µM (inactive)
HCT-15
  GI50: > 100 µM
SK-MEL-2
  GI50: > 100 µM (inactive)
UACC-62
  GI50: > 100 µM (inactive)
M14
  GI50: > 100 µM (inactive)
CCRF-CEM
  GI50: > 100 µM (inactive)
UACC-257
  GI50: > 100 µM (inactive)
U-251
  GI50: > 100 µM (inactive)
RPMI-8226
  GI50: > 100 µM (inactive)
HCC 2998
  GI50: > 100 µM (inactive)
EKVX
  GI50: > 100 µM (inactive)
OVCAR-5
  GI50: > 100 µM (inactive)
SN12C
  GI50: > 100 µM (inactive)
IGROV-1
  GI50: > 100 µM (inactive)
SR
  GI50: > 100 µM (inactive)
UO-31
  GI50: > 100 µM (inactive)
RXF 393
  GI50: > 100 µM (inactive)
NCI-H522
  GI50: > 100 µM (inactive)
Hs-578T
  GI50: > 100 µM (inactive)
KM12
  GI50: > 100 µM (inactive)
PC-3
  GI50: > 100 µM (inactive)
HOP-62
  GI50: > 100 µM (inactive)
SNB-19
  GI50: > 100 µM (inactive)
TK-10
  GI50: > 100 µM (inactive)
SK-MEL-5
  GI50: > 100 µM (inactive)
786-0
  GI50: > 100 µM (inactive)
SK-OV-3
  GI50: > 100 µM (inactive)
SK-MEL-28
  GI50: > 100 µM (inactive)
Malme-3M
  GI50: > 100 µM (inactive)

## O=C1/C(=C/c2c(Cl)[nH]c3ccccc23)c2ccccc2N1c1ccccc1
SW-620
  GI50: 5.15 µM (inactive)
DU-145
  GI50: 7.43 µM (inactive)
HCT-116
  GI50: 4.6 µM (inactive)
K562
  GI50: 4.1 µM (inactive)
HT-29
  GI50: 3.53 µM (inactive)
COLO 205
  GI50: 1.79 µM (inactive)
LOX IMVI
  GI50: 3.66 µM (inactive)
MOLT-4
  GI50: 4.22 µM (inactive)
CAKI-1
  GI50: 8.3 µM (inactive)
A549
  GI50: 5.18 µM (inactive)
MDA-MB-435
  GI50: 1.64 µM (inactive)
SF-295
  GI50: 2.44 µM (inactive)
SF-539
  GI50: 3.7 µM (inactive)
SNB-75
  GI50: 6.81 µM (inactive)
NCI-H460
  GI50: 3.59 µM (inactive)
MDA-N
  GI50: 1.85 µM (inactive)
OVCAR-8
  GI50: 4.35 µM (inactive)
SF-268
  GI50: 5.52 µM (inactive)
ACHN
  GI50: 7.01 µM (inactive)
NCI-H23
  GI50: 5.32 µM (inactive)
MDA-MB-231
  GI50: 6.4 µM (inactive)
NCI/ADR-RES
  GI50: 2.24 µM (inactive)
OVCAR-3
  GI50: 1.79 µM (inactive)
T47D
  GI50: 3.37 µM (inactive)
HOP-92
  GI50: 9.44 µM (inactive)
BT-549
  GI50: 3.29 µM (inactive)
A498
  GI50: 10.4 µM (inactive)
MCF7
  GI50: 4.02 µM (inactive)
HL-60
  GI50: 3.01 µM (inactive)
HCT-15
  GI50: 3.14 µM
SK-MEL-2
  GI50: 3.36 µM (inactive)
UACC-62
  GI50: 5.65 µM (inactive)
M14
  GI50: 3.93 µM (inactive)
CCRF-CEM
  GI50: 3.9 µM (inactive)
UACC-257
  GI50: 11.6 µM (inactive)
U-251
  GI50: 5.05 µM (inactive)
RPMI-8226
  GI50: 2.92 µM (inactive)
HCC 2998
  GI50: 8.97 µM (inactive)
EKVX
  GI50: 3.16 µM (inactive)
OVCAR-5
  GI50: 12.9 µM (inactive)
SN12C
  GI50: 6.19 µM (inactive)
IGROV-1
  GI50: 4.39 µM (inactive)
SR
  GI50: 3.64 µM (inactive)
UO-31
  GI50: 6.46 µM (inactive)
RXF 393
  GI50: 11.9 µM (inactive)
NCI-H522
  GI50: 3.05 µM (inactive)
Hs-578T
  GI50: 3.9 µM (inactive)
KM12
  GI50: 3.86 µM (inactive)
PC-3
  GI50: 4.28 µM (inactive)
HOP-62
  GI50: 4.94 µM (inactive)
SNB-19
  GI50: 9.84 µM (inactive)
TK-10
  GI50: 11.2 µM (inactive)
SK-MEL-5
  GI50: 2.89 µM (inactive)
786-0
  GI50: 6.56 µM (inactive)
SK-OV-3
  GI50: 2 µM (inactive)
SK-MEL-28
  GI50: 10.4 µM (inactive)
Malme-3M
  GI50: 5.79 µM (inactive)
